We go through 2 compounds from US20230365618A1, “CRYSTALLINE THIOCHOLESTEROL” (Durect Corporation, priority 2020, published 2023).

Data set [1] deals with lipid biosynthesis; cholesterol secretion and degradation. The note with it: shown previously; cited from earlier work.
Data set [2] is described as follows: Relative thermodynamic stability of the forms from crystal density, DSC melt onset and heat of fusion. The note with it: suggested by higher crystal density and melt onset (with higher heat of fusion). The class given is physicochemical. On the procedure: A tau lag adjustment is performed with indium, tin, and zinc. […] The adjustment is then verified with octane, phenyl salicylate, indium, tin, and zinc. […] A weighed aluminum pan configured as the sample pan was placed on the […] side of the cell.

A short description of data set [3]: Dynamic vapor sorption/desorption (DVS). The note with it: for hygroscopicity: DVS plot. It is filed as physicochemical.

For the compound `CC(C)CCC[C@@H](C)[C@H]1CC[C@H]2[C@@H]3CC=C4C[C@@H](S)CC[C@]4(C)[C@H]3CC[C@]12C` [Thiocholesterol, (3 S,8S,9S,10R,13R,14S,17R)-17-[(1R)-1,5-dimethylhexyl]-10,13-dimethyl-2,3,4,7,8,9,11,12,14,15,16,17-dodecahydro-1H-cyclopenta[a] phenanthrene-3-thiol], in data set [1], the “cholesterol secretion and degradation” value is on record as “increases”; the lipid biosynthesis result is on record as “decreases”.

Consider `CC(C)CCC[C@@H](C)[C@H]1CC[C@H]2[C@@H]3CC=C4C[C@@H](S)CC[C@]4(C)[C@H]3CC[C@]12C` [crystalline thiocholesterol Form A], for which the “thermodynamic stability relative to another form” value in data set [2] is listed as “more thermodynamically stable than Crystalline Thiocholesterol Form B”. Moreover, the “weight change during the DVS cycle” value in data set [3] (5% to 95% RH, sorption and desorption, FIG. 6) is listed as 0.25%. Also, the hygroscopicity entry in data set [3] (FIG. 6) was “low hygroscopicity”; in data set [3] (FIG. 6, listed as Crystalline thiocholesterol Form A), “non-hygroscopic”. Further, the “solid form of material recovered from the DVS experiment (x-ray powder diffraction)” value in data set [3] (after DVS cycle 5% to 95% RH) was “identified as crystalline thiocholesterol Form A”.
